Assay results from ChEMBL document CHEMBL3868599, “Strategy for designing selective α-l-rhamnosidase inhibitors: Synthesis and biological evaluation of l-DMDP cyclic isothioureas” (Bioorg Med Chem, 2017).

Assays:
Bos taurus = organism: Bos taurus; experiment: Inhibition of bovine liver beta-glucosidase at 1000 uM using p-nitrophenyl-glycoside as substrate by spectrophotometric method
[1] = target: T1, Alpha-mannosidase (Canavalia ensiformis) (UniProt C0HJB3); experiment: Inhibition of Jack bean alpha-mannosidase at 1000 uM preincubated for 45 mins followed by addition of p-nitrophenyl-glycoside as substrate measured after 30 mins by fluorescence spectrophometry
T1 sequence (whole entry): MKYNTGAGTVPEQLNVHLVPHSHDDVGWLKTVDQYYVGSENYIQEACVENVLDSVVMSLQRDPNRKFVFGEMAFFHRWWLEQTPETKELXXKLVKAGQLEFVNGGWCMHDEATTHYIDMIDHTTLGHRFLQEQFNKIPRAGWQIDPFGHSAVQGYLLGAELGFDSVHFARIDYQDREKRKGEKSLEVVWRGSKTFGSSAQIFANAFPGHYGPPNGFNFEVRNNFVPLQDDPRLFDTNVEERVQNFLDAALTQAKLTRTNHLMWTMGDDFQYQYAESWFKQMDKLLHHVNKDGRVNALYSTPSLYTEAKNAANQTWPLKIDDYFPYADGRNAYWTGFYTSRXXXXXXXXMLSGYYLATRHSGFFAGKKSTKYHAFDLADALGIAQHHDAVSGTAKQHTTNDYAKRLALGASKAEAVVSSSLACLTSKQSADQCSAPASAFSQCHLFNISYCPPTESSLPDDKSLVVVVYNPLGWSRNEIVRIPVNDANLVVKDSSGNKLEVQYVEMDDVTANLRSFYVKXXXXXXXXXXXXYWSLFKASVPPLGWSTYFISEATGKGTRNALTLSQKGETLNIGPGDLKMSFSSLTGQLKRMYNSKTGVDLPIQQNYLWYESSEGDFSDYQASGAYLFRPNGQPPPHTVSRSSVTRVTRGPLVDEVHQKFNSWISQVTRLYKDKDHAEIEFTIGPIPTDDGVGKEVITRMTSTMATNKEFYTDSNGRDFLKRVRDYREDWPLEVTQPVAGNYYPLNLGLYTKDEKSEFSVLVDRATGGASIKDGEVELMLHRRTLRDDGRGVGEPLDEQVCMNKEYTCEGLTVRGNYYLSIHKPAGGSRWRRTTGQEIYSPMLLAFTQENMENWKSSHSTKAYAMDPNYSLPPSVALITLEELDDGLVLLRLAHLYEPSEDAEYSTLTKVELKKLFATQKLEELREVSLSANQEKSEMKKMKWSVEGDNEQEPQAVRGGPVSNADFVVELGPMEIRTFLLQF

Escherichia coli [2] = experiment: Inhibition of Escherichia coli beta-galactosidase at 1000 uM using p-nitrophenyl-glycoside as substrate by spectrophotometric method
Escherichia coli [3] = experiment: Inhibition of Escherichia coli beta-glucuronidase at 1000 uM using p-nitrophenyl-glycoside as substrate by spectrophotometric method
Coffea = experiment: Inhibition of coffee bean alpha-galactosidase at 1000 uM using p-nitrophenyl-glycoside as substrate by spectrophotometric method
Aspergillus niger = experiment: Inhibition of Aspergillus niger amyloglucosidase assessed as D-glucose level at 1000 uM using maltose as substrate measured after 10 to 30 mins
Helix pomatia = experiment: Inhibition of Helix pomatia beta-mannosidase at 1000 uM using p-nitrophenyl-glycoside as substrate by spectrophotometric method
[4] = target: T2, Beta-galactosidase (Bos taurus) (UniProt Q58D55); experiment: Inhibition of bovine liver beta-galactosidase at 1000 uM using p-nitrophenyl-glycoside as substrate by spectrophotometric method
T2 sequence (whole entry): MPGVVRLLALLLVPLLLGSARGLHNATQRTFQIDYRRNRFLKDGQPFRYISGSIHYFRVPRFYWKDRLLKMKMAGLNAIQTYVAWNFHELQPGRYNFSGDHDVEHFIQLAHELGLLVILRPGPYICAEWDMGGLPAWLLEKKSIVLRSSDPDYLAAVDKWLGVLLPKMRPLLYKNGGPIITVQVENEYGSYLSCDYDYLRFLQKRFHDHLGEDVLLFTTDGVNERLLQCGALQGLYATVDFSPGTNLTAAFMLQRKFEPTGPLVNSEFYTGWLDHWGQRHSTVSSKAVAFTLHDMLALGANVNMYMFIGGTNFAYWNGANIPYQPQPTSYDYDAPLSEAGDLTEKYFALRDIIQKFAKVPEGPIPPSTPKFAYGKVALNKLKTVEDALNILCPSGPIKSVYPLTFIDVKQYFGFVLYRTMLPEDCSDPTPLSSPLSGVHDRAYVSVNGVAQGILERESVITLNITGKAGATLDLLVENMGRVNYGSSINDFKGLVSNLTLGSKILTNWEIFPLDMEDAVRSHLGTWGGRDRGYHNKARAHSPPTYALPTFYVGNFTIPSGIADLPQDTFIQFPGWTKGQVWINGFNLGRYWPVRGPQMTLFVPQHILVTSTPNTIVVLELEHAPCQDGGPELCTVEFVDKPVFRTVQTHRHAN

[5] = target: T3, Uncharacterized protein (Sus scrofa) (UniProt I3LIR5); experiment: Inhibition of porcine kidney trehalase assessed as D-glucose level at 1000 uM using maltose as substrate measured after 10 to 30 mins
T3 sequence (whole entry): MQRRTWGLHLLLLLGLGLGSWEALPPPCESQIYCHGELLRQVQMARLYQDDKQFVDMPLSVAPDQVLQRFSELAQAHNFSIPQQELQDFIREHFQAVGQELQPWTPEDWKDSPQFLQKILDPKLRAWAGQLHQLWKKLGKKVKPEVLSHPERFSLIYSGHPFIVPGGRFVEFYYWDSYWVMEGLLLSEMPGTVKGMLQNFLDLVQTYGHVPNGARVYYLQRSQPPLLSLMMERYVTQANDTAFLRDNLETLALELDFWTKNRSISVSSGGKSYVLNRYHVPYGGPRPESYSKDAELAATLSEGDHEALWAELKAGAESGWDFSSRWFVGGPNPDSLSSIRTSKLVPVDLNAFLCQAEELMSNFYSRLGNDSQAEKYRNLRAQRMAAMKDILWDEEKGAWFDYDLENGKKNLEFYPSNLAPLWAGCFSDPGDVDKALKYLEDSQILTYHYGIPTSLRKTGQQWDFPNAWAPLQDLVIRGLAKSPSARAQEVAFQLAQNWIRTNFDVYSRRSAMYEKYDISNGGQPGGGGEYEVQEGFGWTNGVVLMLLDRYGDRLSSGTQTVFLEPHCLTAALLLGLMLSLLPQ

[6] = Inhibition of Penicillium decumbens alpha-L-rhamnosidase using p-nitrophenyl-glycoside as substrate by spectrophotometric method
Saccharomyces cerevisiae = experiment: Inhibition of yeast alpha-glucosidase at 1000 uM using p-nitrophenyl-glycoside as substrate by spectrophotometric method
Prunus dulcis = experiment: Inhibition of almond beta-glucosidase at 1000 uM using p-nitrophenyl-glycoside as substrate by spectrophotometric method
Rattus norvegicus = organism: Rattus norvegicus; experiment: Inhibition of rat intestinal maltase assessed as D-glucose level at 1000 uM using maltose as substrate measured after 10 to 30 mins
[7] = target: T4, Tissue alpha-L-fucosidase (Bos taurus) (UniProt Q2KIM0); experiment: Inhibition of bovine kidney alpha-L-fucosidase at 1000 uM using p-nitrophenyl-glycoside as substrate by spectrophotometric method
T4 sequence (whole entry): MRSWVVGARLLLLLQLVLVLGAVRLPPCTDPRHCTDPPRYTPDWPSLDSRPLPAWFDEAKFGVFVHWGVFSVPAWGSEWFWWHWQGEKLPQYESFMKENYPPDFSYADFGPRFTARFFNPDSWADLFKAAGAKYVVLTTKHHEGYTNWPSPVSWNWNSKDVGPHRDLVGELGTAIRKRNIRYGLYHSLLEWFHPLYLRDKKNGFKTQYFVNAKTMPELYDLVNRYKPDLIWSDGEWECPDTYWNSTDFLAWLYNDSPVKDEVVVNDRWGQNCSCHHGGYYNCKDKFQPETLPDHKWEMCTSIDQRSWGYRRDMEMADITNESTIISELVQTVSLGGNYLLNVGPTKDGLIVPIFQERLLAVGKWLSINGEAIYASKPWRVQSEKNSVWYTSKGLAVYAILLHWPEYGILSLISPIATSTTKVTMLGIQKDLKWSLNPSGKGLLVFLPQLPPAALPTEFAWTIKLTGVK

Homo sapiens = organism: Homo sapiens; experiment: Inhibition of human lysosomal beta-glucosidase at 1000 uM using 4-methylumbelliferyl-beta-D-glucopyranoside as substrate preincubated for 45 mins followed by substrate addition measured after 30 mins by fluorescence spectrophotometric method
Oryza sativa = experiment: Inhibition of rice alpha-glucosidase at 1000 uM using p-nitrophenyl-glycoside as substrate by spectrophotometric method
[8] = Inhibition of rice alpha-glucosidase using p-nitrophenyl-glycoside as substrate by spectrophotometric method; parameters: species or system Oryza sativa
[9] = Inhibition of bovine liver beta-glucosidase using p-nitrophenyl-glycoside as substrate by spectrophotometric method; parameters: species or system Bos taurus
Beta-galactosidase = target: T5, Beta-galactosidase (Bos taurus, UniProt Q58D55); experiment: Inhibition of bovine liver beta-galactosidase using p-nitrophenyl-glycoside as substrate by spectrophotometric method
T5 sequence (Q58D55 whole entry): T2 sequence (whole entry)

Penicillium decumbens = experiment: Inhibition of Penicillium decumbens alpha-L-rhamnosidase at 1000 uM using p-nitrophenyl-glycoside as substrate by spectrophotometric method
[10] = Inhibition of maltase in rat small intestinal brush border membranes assessed as D-glucose level using maltose as substrate measured after 10 to 30 mins
[11] = Inhibition of Penicillium decumbens alpha-L-rhamnosidase assessed as reduction in hydrolysis of p-nitrophenyl-a-L-rhamnopyranoside

inhibition (Bos taurus)	inhibition [1]	inhibition (Escherichia coli [2])	inhibition (Escherichia coli [3])	inhibition (Coffea)	inhibition (Aspergillus niger)	inhibition (Helix pomatia)	inhibition [5]	IC50 [6]	inhibition (Saccharomyces cerevisiae)	inhibition (Prunus dulcis)	inhibition [7]	inhibition (Homo sapiens)	IC50 [8]	IC50 (Beta-galactosidase)	inhibition (Penicillium decumbens)	IC50 [10]	IC50 [11]	SMILES	other results
< 50%	< 50%	< 50%	< 50%	< 50%	< 50%	< 50%	< 50%	1.6 µM	< 50%	< 50%	< 50%	< 50%						CCCCCCCC/N=C1/SC[C@H]2[C@H](O)[C@@H](O)[C@H](CO)N12	inhibition [4]: < 50%; inhibition (Rattus norvegicus): < 50%; inhibition (Oryza sativa): < 50%
			< 50%		< 50%		< 50%			< 50%	< 50%	< 50%	741 µM	473 µM	< 50%	1000 µM		CCCCNC(=S)N1[C@@H](CO)[C@H](O)[C@@H](O)[C@@H]1CO	IC50 [9]: 939 µM
< 50%			< 50%		< 50%		< 50%	5.3 µM		< 50%	< 50%	< 50%	418 µM	599 µM		799 µM		CCCCCC/N=C1/SC[C@H]2[C@H](O)[C@@H](O)[C@H](CO)N12	
																	70 µM	C[C@H](O)[C@H]1[C@@H](O)[C@@H](O)c2nnnn21	
< 50%	< 50%	< 50%		< 50%	< 50%	< 50%			< 50%	< 50%		< 50%			< 50%			OC[C@@H]1N[C@@H](CO)[C@H](O)[C@H]1O	
																	4 µM	C[C@H](O)[C@@H]1NC[C@H](O)[C@@H]1O	
